Source: ChEMBL document CHEMBL1133460, “Synthesis and biological evaluation of certain alpha,beta-unsaturated ketones and their corresponding fused pyridines as antiviral and cytotoxic agents” (J Med Chem, 2000)
In brackets after ≈: the same amount, converted by molar mass.

Legend:
[1] = In vitro effective concentration against HIV-1 cytopathic effect in T4 cells; format: functional, cell-based; details: Homo sapiens
[2] = tested on: MT4; assay: In vitro inhibitory activity against uninfected T4 cells; format: functional, cell-based; details: Homo sapiens
[3] = tested on: Tumor cell line; assay: In vitro for median growth inhibitory concentration against breast cancer cell lines; format: functional; details: Homo sapiens
[4] = tested on: Panel renal (Carcinoma cell lines); assay: In vitro growth inhibitory concentration against renal cancer cell lines; format: functional; details: Homo sapiens
[5] = tested on: Tumor cell line; assay: In vitro for median growth inhibitory concentration against CNS cancer cell lines; format: functional; details: Homo sapiens
[6] = tested on: Tumor cell line; assay: In vitro for median growth inhibitory concentration against non small lung cancer cell lines; format: functional; details: Homo sapiens
[7] = tested on: Tumor cell line; assay: In vitro for median growth inhibitory concentration against ovarian cancer cell lines; format: functional; details: Homo sapiens
[8] = Full panel mean-graph midpoint (MG-MID).
[9] = tested on: Tumor cell line; assay: In vitro for growth inhibitory concentration against non small lung cancer cell lines; format: functional; details: Homo sapiens
[10] = tested on: Panel CNS (Carcinoma cell lines); assay: In vitro growth inhibitory concentration against CNS cancer cell lines; format: functional; details: Homo sapiens
[11] = tested on: Ovarian cancer cell line; assay: In vitro growth inhibitory concentration against ovarian cancer cell lines; format: functional; details: Homo sapiens
[12] = Full panel mean-graph midpoint (MG-MID)
[13] = tested on: Tumor cell line; assay: In vitro for median growth inhibitory concentration against prostate cancer cell lines; format: functional; details: Homo sapiens
[14] = tested on: Tumor cell line; assay: In vitro for median growth inhibitory concentration against melanoma cell lines; format: functional; details: Homo sapiens
[15] = tested on: Tumor cell line; assay: In vitro for median growth inhibitory conc. against leukemia (compounds full panel MG-MID/leukemia subpanel MG-MID); format: functional; details: Homo sapiens
[16] = tested on: Tumor cell line; assay: In vitro for median growth inhibitory concentration against colon cancer cell lines; format: functional; details: Homo sapiens
[17] = tested on: Tumor cell line; assay: In vitro for median growth inhibitory concentration against renal cancer cell lines; format: functional; details: Homo sapiens
[18] = tested on: Breast cancer cell line; assay: In vitro growth inhibitory concentration against breast cancer cell lines; format: functional; details: Homo sapiens
[19] = tested on: Human immunodeficiency virus 1; assay: In vitro effective concentration against HIV-1 cytopathic effect in T4 cells; Inactive; format: functional, organism-based
[20] = tested on: Panel prostate (Carcinoma cell lines); assay: In vitro growth inhibitory concentration against prostate cancer cell lines; format: functional; details: Homo sapiens
[21] = In vitro growth inhibitory concentration against colon cancer tumor cell lines; format: functional; details: Homo sapiens
[22] = tested on: Panel melanoma (Carcinoma cell lines); assay: In vitro growth inhibitory concentration against melanoma cancer cell lines; format: functional; details: Homo sapiens
[23] = tested on: Panel leukemia (Carcinoma cell lines); assay: In vitro growth inhibitory concentration against leukemia tumor cell lines; format: functional; details: Homo sapiens
[24] = tested on: Ovarian cancer cell line; assay: In vitro median growth inhibitory concentration against ovarian cancer cell lines; format: functional; details: Homo sapiens
[25] = tested on: Panel leukemia (Carcinoma cell lines); assay: In vitro median growth inhibitory conc. against leukemia was estimated.; format: functional; details: Homo sapiens
[26] = tested on: Panel prostate (Carcinoma cell lines); assay: In vitro median growth inhibitory concentration against prostate cancer cell lines; format: functional; details: Homo sapiens
[27] = tested on: NSCLC; assay: In vitro growth inhibitory concentration against non-small-cell lung cancer; format: functional; details: Homo sapiens
[28] = organism: Homo sapiens; assay: Selectivity ratio between the full panel MG-MID and leukemia subpanel MG-MID was determined.; format: functional
[29] = In vitro median growth inhibitory concentration against colon cancer cell lines; format: functional; details: Homo sapiens
[30] = tested on: Panel CNS (Carcinoma cell lines); assay: In vitro median growth inhibitory concentration against CNS cancer cell lines; format: functional; details: Homo sapiens
[31] = tested on: Breast cancer cell line; assay: In vitro median growth inhibitory concentration against breast cancer cell lines; format: functional; details: Homo sapiens
[32] = tested on: Panel renal (Carcinoma cell lines); assay: In vitro median growth inhibitory concentration against renal cancer cell lines; format: functional; details: Homo sapiens
[33] = tested on: Tumor cell line; assay: Median lethal concentration was estimated; format: ADME, cell-based; details: human
[34] = tested on: Panel melanoma (Carcinoma cell lines); assay: In vitro median growth inhibitory concentration against melanoma cell lines; format: functional; details: Homo sapiens
[35] = tested on: NSCLC; assay: In vitro median growth inhibitory concentration against non-small-cell lung cancer; format: functional; details: Homo sapiens
[36] = tested on: Human alphaherpesvirus 1; assay: Concentration which caused 50% loss of the monolayer present around the viral plaques in ug/mL.; format: functional, organism-based
[37] = tested on: Human alphaherpesvirus 1; assay: Concentration which caused 50% loss of the monolayer present around the viral plaques in uM; format: functional, organism-based
[38] = tested on: Human alphaherpesvirus 1; assay: Minimum antiviral concentration proved to be lethal to viral population in ug/mL.; format: functional
[39] = tested on: Human alphaherpesvirus 1; assay: Minimum antiviral concentration proved to be lethal to viral population in uM; format: functional
[40] = tested on: Human alphaherpesvirus 1; assay: In vitro antiviral activity against Herpes Simplex-1 virus (HSV-1) expressed as percent reduction in the number of viral plaques; format: functional; parameters: concentration or dose not given beside the values

Question: Which results are given for `Cc1cn([C@H]2C[C@H](N=[N+]=[N-])[C@@H](CO)O2)c(=O)[nH]c1=O` [ZIDOVUDINE]?
Answer: EC50 [1]: 0.0007 µM; IC50 [2]: 35.6 µM

Question: With `CN1CC2=C(OC(N)=C(C#N)C2c2cccs2)/C(=C/c2cccs2)C1` (centres undefined) as the compound, how does the TGI [3] read?
Answer: 27.9 µM

Question: And the TGI [4]?
Answer: 81.6 µM

Question: And the GI50 [5]?
Answer: 42.2 µM

Question: What about the GI50 [6] of the same compound?
Answer: 16.3 µM

Question: And the GI50 [7]?
Answer: 25 µM

Question: What about the MG-MID [8] of the same compound?
Answer: 11.6 µM

Question: What about the TGI [9] of the same compound?
Answer: 75.5 µM

Question: And the TGI [10]?
Answer: > 100 µM

Question: And the TGI [11]?
Answer: 73.2 µM

Question: What about the MG-MID [12] of the same compound?
Answer: 57.8 µM

Question: And the GI50 [13]?
Answer: 13.5 µM

Question: What about the GI50 [14] of the same compound?
Answer: 36.3 µM

Question: What about the GI50 [15] of the same compound?
Answer: 3.2 µM

Question: And the GI50 [16]?
Answer: 17.3 µM

Question: And the GI50 [17]?
Answer: 32.5 µM

Question: What about the TGI [18] of the same compound?
Answer: 57.7 µM

Question: What about the EC50 [19] of the same compound?
Answer: Not Active

Question: What about the TGI [20] of the same compound?
Answer: 90.9 µM

Question: And the IC50 [2]?
Answer: 9 µM

Question: And the TGI [21]?
Answer: 87.3 µM

Question: And the TGI [22]?
Answer: 87 µM

Question: What about the TGI [23] of the same compound?
Answer: 27.6 µM

Question: Which results are given for `CN1C/C(=C\c2cccs2)C2=NN(c3ccccc3)C(c3cccs3)C2C1` (centres undefined)?
Answer: GI50 [24]: 24.2 µM; TGI [4]: > 100 µM; GI50 [25]: 2.2 µM; GI50 [26]: 19.3 µM; TGI [27]: > 100 µM; MG-MID [8]: 8.5 µM; TGI [10]: > 100 µM; TGI [11]: > 100 µM; Ratio [28]: 3.9; MG-MID [12]: 72.9 µM; GI50 [29]: 3.8 µM; GI50 [30]: 35.7 µM; TGI [18]: > 100 µM; GI50 [31]: 23.6 µM; EC50 [19]: Not Active; TGI [20]: > 100 µM; IC50 [2]: 9.1 µM; TGI [21]: 87.1 µM; GI50 [32]: 65.3 µM; LC50 [33]: 95.8 µM; TGI [22]: > 100 µM; GI50 [34]: 42.5 µM; GI50 [35]: 20.8 µM; TGI [23]: 52.2 µM

Question: With `C[C@@]1(CO)[C@H](O)CC[C@@]2(C)[C@H]1CC[C@H]1C[C@@H]3C[C@@]12CC[C@]3(O)CO` [APHIDICOLIN] as the compound, how does the IC50 [36] read?
Answer: 0.2 µg/mL (≈ 0.591 µM)

Question: What about the IC50 [37] of the same compound?
Answer: 0.59 µM

Question: What about the MAC [38] of the same compound?
Answer: 0.005 µg/mL

Question: And the MAC [39]?
Answer: 0.02 µM

Question: And the Reduction [40]?
Answer: 100%

Question: What does the source list for `CN1C/C(=C\c2ccc(Cl)cc2)C(=O)/C(=C/c2ccc(Cl)cc2)C1`?
Answer: IC50 [36]: 0.2 µg/mL (≈ 0.558 µM); IC50 [37]: 0.69 µM; MAC [38]: 0.02 µg/mL; MAC [39]: 0.07 µM; Reduction [40]: 93%

Question: What does the source list for `Cc1ccc(/C=C2\CN(C)Cc3c2nc(O)c(C#N)c3-c2ccc(C)cc2)cc1`?
Answer: EC50 [19]: Not Active; IC50 [2]: > 200 µM

Question: Which results are given for `COc1ccc(/C=C2\CN(C)C/C(=C\c3ccc(OC)cc3)C2O)cc1`?
Answer: IC50 [36]: 0.04 µg/mL (≈ 0.114 µM); IC50 [37]: 0.12 µM; MAC [38]: 0.02 µg/mL; MAC [39]: 0.06 µM; Reduction [40]: 58%

Question: For `COc1ccc(/C=C2\CN(C)CC3=C2N=C(S)NC3c2ccc(OC)cc2)cc1` (centres undefined), which GI50 [24] is on record?
Answer: 5 µM

Question: And the TGI [4]?
Answer: 97.2 µM

Question: What about the GI50 [25] of the same compound?
Answer: 2 µM

Question: And the GI50 [26]?
Answer: 9.1 µM

Question: And the TGI [27]?
Answer: 93.6 µM

Question: And the MG-MID [8]?
Answer: 56.3 µM

Question: What about the TGI [10] of the same compound?
Answer: 81.9 µM

Question: And the TGI [11]?
Answer: 76.4 µM

Question: And the Ratio [28]?
Answer: 2.5

Question: What about the MG-MID [12] of the same compound?
Answer: 4.9 µM

Question: And the GI50 [29]?
Answer: 4 µM

Question: What about the GI50 [30] of the same compound?
Answer: 30 µM

Question: What about the TGI [18] of the same compound?
Answer: 68.1 µM

Question: What about the GI50 [31] of the same compound?
Answer: 11.1 µM

Question: What about the EC50 [19] of the same compound?
Answer: Not Active

Question: What about the TGI [20] of the same compound?
Answer: 30.1 µM

Question: And the IC50 [2]?
Answer: 6.8 µM

Question: What about the TGI [21] of the same compound?
Answer: 76.3 µM

Question: What about the GI50 [32] of the same compound?
Answer: 5.9 µM

Question: What about the LC50 [33] of the same compound?
Answer: 91.8 µM

Question: And the TGI [22]?
Answer: 83.1 µM

Question: And the GI50 [34]?
Answer: 11.7 µM

Question: What about the GI50 [35] of the same compound?
Answer: 6.5 µM

Question: And the TGI [23]?
Answer: 36.3 µM
